Reference: the supplement of paper PMC11208160

Test: recombinant barcode read abundance after kanamycin selection (control-corrected) (log10(CPM+1)); higher = more efficient recombination; sequences stand for … in AGTGCAGAGAAAATCGGCCAGTTTTCTCTGCCTGCAGTCCGCATGCCGT…ATTTATGCAGCGGACTGCCTTTCTCCCAAAGTGATAAACCGGACAGTATCATGGACCGGTTTTCCCGGTAATCCGTATTTGCAAGGTTGGTTTCACT; site = the 11-nt target
How it was run: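 Targets were screened in pooled form in E. coli against IS621 bridge RNA target-binding loops. Recombination efficiency is based on barcode counts at recombinant junctions in counts per million, averaged and corrected for the control. Numbers are shown as log10(CPM+1), with duplicate plates on chloramphenicol/ampicillin LB agar (control) or chloramphenicol/ampicillin/kanamycin with 0.1 mM IPTG.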

Row | Sequence | recombinant barcode read abundance (log10)
1 | GGTGCCCCGTGGGTTCTAACCTGTTGCCGAG [GGTGCCCCTCG_LTGcore_CG_RTGcore_CT] (site GGTGCCCCTCG) (LTG core: CG, RTG core: CT) | 0.0559
2 | GGTGCCCCGTGGGTTCTAACCTGTTGCCGCG [GGTGCCCCTCG_LTGcore_CG_RTGcore_CG] (site GGTGCCCCTCG) (LTG core: CG, RTG core: CG) | 0.329
3 | GGTGCCCCTTGGGTTCTAACCTGTTGCCGGA [GGTGCCCCTCG_LTGcore_CT_RTGcore_TC] (site GGTGCCCCTCG) (LTG core: CT, RTG core: TC) | 0.0539
4 | GGTGCCCCTTGGGTTCTAACCTGTTGCCGGG [GGTGCCCCTCG_LTGcore_CT_RTGcore_CC] (site GGTGCCCCTCG) (LTG core: CT, RTG core: CC) | 0.295
5 | GGTGCCCCTTGGGTTCTAACCTGTTGCCGTG [GGTGCCCCTCG_LTGcore_CT_RTGcore_CA] (site GGTGCCCCTCG) (LTG core: CT, RTG core: CA) | 0.126
6 | GGTGCCCGCTGGGTTCTAACCTGTTGCCGGC [GGTGCCCCTCG_LTGcore_GC_RTGcore_GC] (site GGTGCCCCTCG) (LTG core: GC, RTG core: GC) | 0.148
7 | GGTGCCCTATGGGTTCTAACCTGTTGCCGTA [GGTGCCCCTCG_LTGcore_TA_RTGcore_TA] (site GGTGCCCCTCG) (LTG core: TA, RTG core: TA) | 0.298
8 | GGTGCCCTGTGGGTTCTAACCTGTTGCCGAG [GGTGCCCCTCG_LTGcore_TG_RTGcore_CT] (site GGTGCCCCTCG) (LTG core: TG, RTG core: CT) | 0.108
9 | GTCGCCCAATGGGTTCTAACCTGTTGCTATT [GTCGCCCCTTA_LTGcore_AA_RTGcore_AA] (site GTCGCCCCTTA) (LTG core: AA, RTG core: AA) | 0.305
10 | GTCGCCCCGTGGGTTCTAACCTGTTGCTACG [GTCGCCCCTTA_LTGcore_CG_RTGcore_CG] (site GTCGCCCCTTA) (LTG core: CG, RTG core: CG) | 0.316
11 | GTCGCCCCTTGGGTTCTAACCTGTTGCTAAC [GTCGCCCCTTA_LTGcore_CT_RTGcore_GT] (site GTCGCCCCTTA) (LTG core: CT, RTG core: GT) | 0.102
12 | GTCGCCCCTTGGGTTCTAACCTGTTGCTAAG [GTCGCCCCTTA_LTGcore_CT_RTGcore_CT] (site GTCGCCCCTTA) (LTG core: CT, RTG core: CT) | 0.234
13 | GTCGCCCCTTGGGTTCTAACCTGTTGCTATA [GTCGCCCCTTA_LTGcore_CT_RTGcore_TA] (site GTCGCCCCTTA) (LTG core: CT, RTG core: TA) | 0.0812
14 | GTCGCCCCTTGGGTTCTAACCTGTTGCTATG [GTCGCCCCTTA_LTGcore_CT_RTGcore_CA] (site GTCGCCCCTTA) (LTG core: CT, RTG core: CA) | 0.725
15 | GTCGCCCCTTGGGTTCTAACCTGTTGCTATT [GTCGCCCCTTA_LTGcore_CT_RTGcore_AA] (site GTCGCCCCTTA) (LTG core: CT, RTG core: AA) | 0.214
16 | GTCGCCCGGTGGGTTCTAACCTGTTGCTAAG [GTCGCCCCTTA_LTGcore_GG_RTGcore_CT] (site GTCGCCCCTTA) (LTG core: GG, RTG core: CT) | 0.0246
17 | GTCGCCCGTTGGGTTCTAACCTGTTGCTAAC [GTCGCCCCTTA_LTGcore_GT_RTGcore_GT] (site GTCGCCCCTTA) (LTG core: GT, RTG core: GT) | 0.146

Row | Sequence | recombinant barcode read abundance (log10)
18 | GTCGCCCTATGGGTTCTAACCTGTTGCTATA [GTCGCCCCTTA_LTGcore_TA_RTGcore_TA] (site GTCGCCCCTTA) (LTG core: TA, RTG core: TA) | 0.394
19 | GTCGCCCTTTGGGTTCTAACCTGTTGCTAAA [GTCGCCCCTTA_LTGcore_TT_RTGcore_TT] (site GTCGCCCCTTA) (LTG core: TT, RTG core: TT) | 0.0974
20 | GTCGCCCTTTGGGTTCTAACCTGTTGCTAAG [GTCGCCCCTTA_LTGcore_TT_RTGcore_CT] (site GTCGCCCCTTA) (LTG core: TT, RTG core: CT) | 0.137
21 | TAAGAATAATGGGTTCTAACCTGTTGCCTAG [TAAGAATCTAG_LTGcore_AA_RTGcore_CT] (site TAAGAATCTAG) (LTG core: AA, RTG core: CT) | 0.232
22 | TAAGAATATTGGGTTCTAACCTGTTGCCTAG [TAAGAATCTAG_LTGcore_AT_RTGcore_CT] (site TAAGAATCTAG) (LTG core: AT, RTG core: CT) | 0.124
23 | TAAGAATCATGGGTTCTAACCTGTTGCCTTG [TAAGAATCTAG_LTGcore_CA_RTGcore_CA] (site TAAGAATCTAG) (LTG core: CA, RTG core: CA) | 1.03
24 | TAAGAATCGTGGGTTCTAACCTGTTGCCTCG [TAAGAATCTAG_LTGcore_CG_RTGcore_CG] (site TAAGAATCTAG) (LTG core: CG, RTG core: CG) | 0.0781
25 | TAAGAATCTTGGGTTCTAACCTGTTGCCTAG [TAAGAATCTAG_LTGcore_CT_RTGcore_CT] (site TAAGAATCTAG) (LTG core: CT, RTG core: CT) | 1.3
26 | TAAGAATCTTGGGTTCTAACCTGTTGCCTAT [TAAGAATCTAG_LTGcore_CT_RTGcore_AT] (site TAAGAATCTAG) (LTG core: CT, RTG core: AT) | 0.0438
27 | TAAGAATCTTGGGTTCTAACCTGTTGCCTTA [TAAGAATCTAG_LTGcore_CT_RTGcore_TA] (site TAAGAATCTAG) (LTG core: CT, RTG core: TA) | 0.138
28 | TAAGAATCTTGGGTTCTAACCTGTTGCCTTC [TAAGAATCTAG_LTGcore_CT_RTGcore_GA] (site TAAGAATCTAG) (LTG core: CT, RTG core: GA) | 0.243
29 | TAAGAATGATGGGTTCTAACCTGTTGCCTTC [TAAGAATCTAG_LTGcore_GA_RTGcore_GA] (site TAAGAATCTAG) (LTG core: GA, RTG core: GA) | 0.176
30 | TAAGAATTGTGGGTTCTAACCTGTTGCCTAG [TAAGAATCTAG_LTGcore_TG_RTGcore_CT] (site TAAGAATCTAG) (LTG core: TG, RTG core: CT) | 0.153
31 | TAAGAATTTTGGGTTCTAACCTGTTGCCTAA [TAAGAATCTAG_LTGcore_TT_RTGcore_TT] (site TAAGAATCTAG) (LTG core: TT, RTG core: TT) | 0.156
32 | TAGAGGGATTGGGTTCTAACCTGTTGCGGAT [TAGAGGGCTCC_LTGcore_AT_RTGcore_AT] (site TAGAGGGCTCC) (LTG core: AT, RTG core: AT) | 0.237
33 | TAGAGGGCCTGGGTTCTAACCTGTTGCGGAG [TAGAGGGCTCC_LTGcore_CC_RTGcore_CT] (site TAGAGGGCTCC) (LTG core: CC, RTG core: CT) | 2.4
34 | TAGAGGGCTTGGGTTCTAACCTGTTGCGGAT [TAGAGGGCTCC_LTGcore_CT_RTGcore_AT] (site TAGAGGGCTCC) (LTG core: CT, RTG core: AT) | 0.779
